Test results published in US10799507B2, “5-(7H-pyrrolo[2,3-d]pyrimidin-4-yl)-5-azaspiro[2.5]octane-8-carboxylic acid derivatives as novel JAK kinase inhibitors” (LEO Pharma A/S, priority 2017, dated 2020).

Key:
JAK2 = JAK2 (Homo sapiens (Human), UniProt O60674); assay: JAK kinase assay (HTRF), JAK2; format: biochemical; conditions: catalytic domain, ATP at Km (4 μM)
How it was run: (§1)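 Catalytic-domain human JAK1 (GST-tagged, aa 850-1154) or His-tagged JAK2, baculovirus-expressed, phosphorylated 1 µM biotinylated TK peptide at Km ATP (JAK1 7 µM, 10 mM MgCl2, 50 nM SEB; JAK2 4 µM, 5 mM MgCl2) in pH 7.0 Hepes, 20-30 min RT. EDTA stop; overnight streptavidin-XL665/cryptate HTRF read.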

JAK1 = JAK1 (Homo sapiens (Human), UniProt P23458); assay: JAK kinase assay (HTRF), JAK1; format: biochemical; conditions: catalytic domain, ATP at Km (7 μM)
How it was run: as §1

[1] = in vitro metabolic stability in human liver microsomes; format: in vitro ADME; conditions: 0.5 μM compound, 0.5 mg/mL microsomes, NADPH, 40 min, 37° C.; for CLint scaled at 0.5 μM: human, liver microsomes, read-out: Human liver microsome Clapp (apparent intrinsic clearance)
Protocol: To assess the in vitro metabolic stability, the compounds (0.5 μM) were incubated in duplicates with human liver microsomes (0.5 mg/mL) in phosphate buffer and NADPH, in 96-well plates for 40 min (37° C.), using a liquid handling robot (Hamilton Microlab Star). Sample aliquots were taken at 0, 5, 10, 20 and 40 min, and dispensed into cold acetonitrile, in order to stop the reactions. The plates were centrifuged for 30 minutes before the samples were analyzed using liquid chromatography coupled to a time-of-flight mass spectrometer (AB Sciex API5600). The compound depletion over time was used to estimate the elimination rate constant, from which the apparent intrinsic clearance, Clapp, was calculated and the values are listed in Table 2.

TYK2 = TYK2 (Homo sapiens (Human), UniProt P29597); assay: JAK kinase assay (HTRF), TYK2; format: biochemical; conditions: catalytic domain, ATP at Km (13 μM)
How it was run: (§2)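 Catalytic-domain human kinases, GST-tagged TYK2 (aa 871-1187) and His-tagged JAK3, phosphorylate 1 μM TK Substrate-Biotin for 20-30 min at RT in 50 mM Hepes pH 7.0, 5 mM MgCl2, ATP at Km (TYK2 13 μM with 50 nM SEB; JAK3 2 μM). Phosphorylation detected by HTRF.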

JAK3 = JAK3 (Homo sapiens (Human), UniProt P52333); assay: JAK kinase assay (HTRF), JAK3; format: biochemical; conditions: catalytic domain, ATP at Km (2 μM)
How it was run: as §2

JAK1, sequence (P23458 850-1154): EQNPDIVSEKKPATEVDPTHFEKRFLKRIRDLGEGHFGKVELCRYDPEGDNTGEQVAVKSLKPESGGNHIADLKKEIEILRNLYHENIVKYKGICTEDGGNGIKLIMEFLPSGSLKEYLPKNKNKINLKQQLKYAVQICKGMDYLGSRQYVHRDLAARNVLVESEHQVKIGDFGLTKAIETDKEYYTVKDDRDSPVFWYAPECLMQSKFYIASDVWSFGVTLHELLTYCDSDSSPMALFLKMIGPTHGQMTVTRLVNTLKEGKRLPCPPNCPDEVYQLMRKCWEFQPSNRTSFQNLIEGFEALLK
JAK3, sequence (P52333 822-1111): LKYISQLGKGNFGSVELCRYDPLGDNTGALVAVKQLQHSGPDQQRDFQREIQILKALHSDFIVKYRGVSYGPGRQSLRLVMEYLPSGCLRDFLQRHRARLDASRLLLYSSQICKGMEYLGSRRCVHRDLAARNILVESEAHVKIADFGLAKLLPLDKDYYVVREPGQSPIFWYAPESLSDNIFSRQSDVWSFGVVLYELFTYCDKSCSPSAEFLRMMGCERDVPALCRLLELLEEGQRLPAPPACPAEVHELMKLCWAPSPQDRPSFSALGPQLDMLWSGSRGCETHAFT
TYK2, sequence (P29597 871-1187): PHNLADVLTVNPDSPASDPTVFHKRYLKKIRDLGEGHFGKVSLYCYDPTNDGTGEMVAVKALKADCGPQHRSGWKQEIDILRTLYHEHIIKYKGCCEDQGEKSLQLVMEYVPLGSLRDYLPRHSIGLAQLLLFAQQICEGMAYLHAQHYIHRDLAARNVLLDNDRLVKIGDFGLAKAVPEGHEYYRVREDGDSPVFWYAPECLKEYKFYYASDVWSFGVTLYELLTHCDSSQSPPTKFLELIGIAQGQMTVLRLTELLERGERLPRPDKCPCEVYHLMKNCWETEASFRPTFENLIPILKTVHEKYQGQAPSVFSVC
JAK2, sequence (O60674 849-1124): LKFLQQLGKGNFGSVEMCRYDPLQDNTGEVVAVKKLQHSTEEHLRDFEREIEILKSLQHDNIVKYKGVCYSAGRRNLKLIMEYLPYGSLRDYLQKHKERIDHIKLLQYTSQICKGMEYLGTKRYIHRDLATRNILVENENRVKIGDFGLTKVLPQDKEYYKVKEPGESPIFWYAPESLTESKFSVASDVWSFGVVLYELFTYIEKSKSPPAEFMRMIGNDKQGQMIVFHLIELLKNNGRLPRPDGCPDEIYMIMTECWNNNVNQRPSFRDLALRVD

O=C(NC[C@@H](O)C1CCCC1)[C@H]1CCN(c2ncnc3[nH]ccc23)CC12CC2 [Example 1, (8S)-N-[(2S)-2-cyclopentyl-2-hydroxy-ethyl]-5-(7H-pyrrolo[2,3-d]pyrimidin-4-yl)-5-azaspiro[2.5]octane-8-carboxamide]
EC50 (JAK2): 1 nM
EC50 (JAK1): 0.5 nM
Human liver microsome Clapp (apparent intrinsic clearance) [1]: 190 mL/min/kg
EC50 (TYK2): 3.6 nM
EC50 (JAK3): 3.3 nM

C[C@H](NC(=O)[C@H]1CCN(c2ncnc3[nH]ccc23)CC12CC2)c1ccc(C#N)cc1 [Example 22, (8S)-N-[(1S)-1-(4-cyanophenyl)ethyl]-5-(7H-pyrrolo[2,3-d]pyrimidin-4-yl)-5-azaspiro[2.5]octane-8-carboxamide]
EC50 (JAK2): 3.2 nM
EC50 (JAK1): 1.2 nM
CLint scaled at 0.5 μM [1]: 123 mL/min/kg
EC50 (TYK2): 43.9 nM
EC50 (JAK3): 7.1 nM

N#Cc1ccc(CNC(=O)C2CCN(c3ncnc4[nH]ccc34)CC23CC3)nc1 (centres unmarked) [Example 76, N-[(5-cyano-2-pyridyl)methyl]-5-(7H-pyrrolo[2,3-d]pyrimidin-4-yl)-5-azaspiro[2.5]octane-8-carboxamide]
EC50 (JAK2): 43.3 nM
EC50 (JAK1): 6.2 nM
CLint scaled at 0.5 μM [1]: 139 mL/min/kg
EC50 (JAK3): 53.6 nM

C[C@H](NC(=O)[C@H]1CCN(c2ncnc3[nH]ccc23)CC12CC2)c1ccc(C#N)cn1 [Example 48, (8S)-N-[(1S)-1-(5-cyano-2-pyridyl)ethyl]-5-(7H-pyrrolo[2,3-d]pyrimidin-4-yl)-5-azaspiro[2.5]octane-8-carboxamide]
EC50 (JAK2): 10.2 nM
EC50 (JAK1): 3.2 nM
CLint scaled at 0.5 μM [1]: 48 mL/min/kg
EC50 (TYK2): 128 nM
EC50 (JAK3): 40.3 nM

N#CCC1(COC(=O)[C@H]2CCN(c3ncnc4[nH]ccc34)CC23CC3)CC1 [Example 163, [1-(cyanomethyl)cyclopropyl]methyl (8S)-5-(7H-pyrrolo[2,3-d]pyrimidin-4-yl)-5-azaspiro[2.5]octane-8-carboxylate]
EC50 (JAK2): 3.8 nM
EC50 (JAK1): 3.1 nM
CLint scaled at 0.5 μM [1]: > 200 mL/min/kg
EC50 (TYK2): 25 nM
EC50 (JAK3): 13 nM

O=C(NCC1(CO)CCCC1)[C@H]1CCN(c2ncnc3[nH]ccc23)CC12CC2 [Example 52, (8S)-N-[[1-(hydroxymethyl)cyclopentyl]methyl]-5-(7H-pyrrolo[2,3-d]pyrimidin-4-yl)-5-azaspiro[2.5]octane-8-carboxamide]
EC50 (JAK2): 10.2 nM
EC50 (JAK1): 3.6 nM
CLint scaled at 0.5 μM [1]: 118 mL/min/kg
EC50 (TYK2): 38 nM
EC50 (JAK3): 22.8 nM

C[C@](CO)(NC(=O)[C@H]1CCN(c2ncnc3[nH]ccc23)CC12CC2)c1ccc(C#N)cc1 [Example 27, (8S)-N-[(1S)-1-(4-cyanophenyl)-2-hydroxy-1-methyl-ethyl]-5-(7H-pyrrolo[2,3-d]pyrimidin-4-yl)-5-azaspiro[2.5]octane-8-carboxamide]
EC50 (JAK2): 3.2 nM
EC50 (JAK1): 1.4 nM
CLint scaled at 0.5 μM [1]: 61 mL/min/kg
EC50 (TYK2): 44.2 nM
EC50 (JAK3): 7 nM

N#CC1CC(CNC(=O)C2CCN(c3ncnc4[nH]ccc34)CC23CC3)C1 (centres unmarked) [Example 59, N-[(3-cyanocyclobutyl)methyl]-5-(7H-pyrrolo[2,3-d]pyrimidin-4-yl)-5-azaspiro[2.5]octane-8-carboxamide]
EC50 (JAK2): 12.1 nM
EC50 (JAK1): 4.2 nM
CLint scaled at 0.5 μM [1]: 28 mL/min/kg
EC50 (TYK2): 322 nM
EC50 (JAK3): 24.5 nM

O=C(OCC1CC(F)(F)C1)[C@@H]1CCN(c2ncnc3[nH]ccc23)CC12CC2 [Example 155, (3,3-difluorocyclobutyl)methyl (8R)-5-(7H-pyrrolo[2,3-d]pyrimidin-4-yl)-5-azaspiro[2.5]octane-8-carboxylate]
EC50 (JAK2): 58 nM
EC50 (JAK1): 30 nM
CLint scaled at 0.5 μM [1]: > 200 mL/min/kg
EC50 (TYK2): 1280 nM
EC50 (JAK3): 144 nM

C[C@@](CO)(NC(=O)[C@H]1CCN(c2ncnc3[nH]ccc23)CC12CC2)c1ccc(C#N)cc1 [Example 28, (8S)-N-[(1R)-1-(4-cyanophenyl)-2-hydroxy-1-methyl-ethyl]-5-(7H-pyrrolo[2,3-d]pyrimidin-4-yl)-5-azaspiro[2.5]octane-8-carboxamide]
EC50 (JAK2): 5.5 nM
EC50 (JAK1): 1.4 nM
CLint scaled at 0.5 μM [1]: 132 mL/min/kg
EC50 (TYK2): 55.8 nM
EC50 (JAK3): 9.8 nM

O=C(OCC1(CO)CCC1)[C@H]1CCN(c2ncnc3[nH]ccc23)CC12CC2 [Example 157, [1-(hydroxymethyl)cyclobutyl]methyl (8S)-5-(7H-pyrrolo[2,3-d]pyrimidin-4-yl)-5-azaspiro[2.5]octane-8-carboxylate]
EC50 (JAK2): 2.1 nM
EC50 (JAK1): 0.8 nM
CLint scaled at 0.5 μM [1]: > 200 mL/min/kg
EC50 (TYK2): 9 nM
EC50 (JAK3): 6.6 nM

O=C(OCC1(CO)CCCCC1)[C@H]1CCN(c2ncnc3[nH]ccc23)CC12CC2 [Example 161, [1-(hydroxymethyl)cyclohexyl]methyl (8S)-5-(7H-pyrrolo[2,3-d]pyrimidin-4-yl)-5-azaspiro[2.5]octane-8-carboxylate]
CLint scaled at 0.5 μM [1]: > 200 mL/min/kg

N#Cc1cccc([C@H](CO)NC(=O)[C@H]2CCN(c3ncnc4[nH]ccc34)CC23CC3)c1 [Example 67, (8S)-N-[(1R)-1-(3-cyanophenyl)-2-hydroxy-ethyl]-5-(7H-pyrrolo[2,3-d]pyrimidin-4-yl)-5-azaspiro[2.5]octane-8-carboxamide]
EC50 (JAK2): 5.2 nM
EC50 (JAK1): 5.1 nM
EC50 (TYK2): 45 nM
EC50 (JAK3): 13.8 nM

C[C@H](NC(=O)C1CCN(c2ncnc3[nH]ccc23)CC12CC2)c1ccccc1 (stereo partly drawn) [Example 99, N-[(1S)-1-phenylethyl]-5-(7H-pyrrolo[2,3-d]pyrimidin-4-yl)-5-azaspiro[2.5]octane-8-carboxamide]
EC50 (JAK2): 11.2 nM
EC50 (JAK1): 9.1 nM
EC50 (TYK2): 399 nM
EC50 (JAK3): 31.1 nM

C[C@H](NC(=O)[C@H]1CCN(c2ncnc3[nH]ccc23)CC12CC2)[C@H](O)c1ccc(C#N)cc1 [Example 126, (8S)-N-[(1S,2R)-2-(4-cyanophenyl)-2-hydroxy-1-methyl-ethyl]-5-(7H-pyrrolo[2,3-d]pyrimidin-4-yl)-5-azaspiro[2.5]octane-8-carboxamide]
EC50 (JAK2): 25.7 nM
EC50 (JAK1): 19.5 nM
EC50 (TYK2): 987 nM
EC50 (JAK3): 29.8 nM

NS(=O)(=O)c1cccc(CNC(=O)C2CCN(c3ncnc4[nH]ccc34)CC23CC3)c1 (centres unmarked) [Example 55, 5-(7H-pyrrolo[2,3-d]pyrimidin-4-yl)-N-[(3-sulfamoylphenyl)methyl]-5-azaspiro[2.5]octane-8-carboxamide]
EC50 (JAK2): 18.5 nM
EC50 (JAK1): 3.7 nM
EC50 (TYK2): 141 nM
EC50 (JAK3): 13.4 nM

COc1cccc(CNC(=O)C2CCN(c3ncnc4[nH]ccc34)CC23CC3)c1 (centres unmarked) [Example 119, N-[(3-methoxyphenyl)methyl]-5-(7H-pyrrolo[2,3-d]pyrimidin-4-yl)-5-azaspiro[2.5]octane-8-carboxamide]
EC50 (JAK2): 36.8 nM
EC50 (JAK1): 13.4 nM
EC50 (TYK2): 539 nM
EC50 (JAK3): 71.1 nM

Cc1cc(F)ccc1[C@H](CO)NC(=O)[C@H]1CCN(c2ncnc3[nH]ccc23)CC12CC2 [Example 77, (8S)-N-[(1R)-1-(4-fluoro-2-methyl-phenyl)-2-hydroxy-ethyl]-5-(7H-pyrrolo[2,3-d]pyrimidin-4-yl)-5-azaspiro[2.5]octane-8-carboxamide]
EC50 (JAK2): 16.3 nM
EC50 (JAK1): 6.2 nM
EC50 (TYK2): 115 nM
EC50 (JAK3): 31.3 nM

COc1cc(C#N)ccc1[C@H](CO)NC(=O)[C@H]1CCN(c2ncnc3[nH]ccc23)CC12CC2 [Example 120, (8S)-N-[(1R)-1-(4-cyano-2-methoxy-phenyl)-2-hydroxy-ethyl]-5-(7H-pyrrolo[2,3-d]pyrimidin-4-yl)-5-azaspiro[2.5]octane-8-carboxamide]
EC50 (JAK2): 40.2 nM
EC50 (JAK1): 13.7 nM
EC50 (TYK2): 392 nM
EC50 (JAK3): 154 nM

O=C(NCCc1ccccc1)C1CCN(c2ncnc3[nH]ccc23)CC12CC2 (centres unmarked) [Example 114, N-phenethyl-5-(7H-pyrrolo[2,3-d]pyrimidin-4-yl)-5-azaspiro[2.5]octane-8-carboxamide]
EC50 (JAK2): 37 nM
EC50 (JAK1): 11.7 nM
EC50 (TYK2): 858 nM
EC50 (JAK3): 64.8 nM

CCc1cc(C#N)ccc1[C@@H](C)NC(=O)[C@H]1CCN(c2ncnc3[nH]ccc23)CC12CC2 [Example 121, (8S)-N-[(1R)-1-(4-cyano-2-ethyl-phenyl)ethyl]-5-(7H-pyrrolo[2,3-d]pyrimidin-4-yl)-5-azaspiro[2.5]octane-8-carboxamide]
EC50 (JAK2): 44.7 nM
EC50 (JAK1): 15.3 nM
EC50 (TYK2): 289 nM
EC50 (JAK3): 141 nM

N#C[C@H]1CC[C@H](CNC(=O)C2CCN(c3ncnc4[nH]ccc34)CC23CC3)C1 (stereo partly drawn) [Example 83, N-[[(1S,3S)-3-cyanocyclopentyl]methyl]-5-(7H-pyrrolo[2,3-d]pyrimidin-4-yl)-5-azaspiro[2.5]octane-8-carboxamide]
EC50 (JAK2): 22.6 nM
EC50 (JAK1): 6.8 nM
EC50 (TYK2): 390 nM
EC50 (JAK3): 44.3 nM
